Biological target: T1, human CRF receptor (Homo sapiens, UniProt P34998)
T1 construct: expressed in transfected cells; host or cells: CHO cells (membrane fraction)
T1 sequence (P34998 24-415): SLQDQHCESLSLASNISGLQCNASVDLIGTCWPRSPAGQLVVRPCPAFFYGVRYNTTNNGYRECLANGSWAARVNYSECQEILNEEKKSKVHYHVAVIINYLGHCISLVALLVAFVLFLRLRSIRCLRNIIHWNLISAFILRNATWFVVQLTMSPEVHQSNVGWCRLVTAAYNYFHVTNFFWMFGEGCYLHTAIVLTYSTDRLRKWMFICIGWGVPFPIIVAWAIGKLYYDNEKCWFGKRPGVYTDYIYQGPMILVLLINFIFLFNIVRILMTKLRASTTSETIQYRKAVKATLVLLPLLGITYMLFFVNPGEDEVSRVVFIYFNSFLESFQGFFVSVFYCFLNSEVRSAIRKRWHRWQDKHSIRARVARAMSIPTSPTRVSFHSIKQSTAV
Assay: Measurement of CRF Binding Inhibitory Rate (receptor binding experiment with 125I-CRF)
Conditions: human CRF receptor expressing CHO cellular membrane fraction; 50 pM ovine 125I-CRF; 0.05 nM to 10 μM of compound; room temperature 1.5 hr; read-out: IC50 values (CRF binding inhibition)
Procedure: Measurement of CRF Binding Inhibitory Rate
A receptor binding experiment was carried out using a human CRF receptor expressing CHO cellular membrane fraction and ovine CRF, [^125I]-tyr^0(^125I-CRF). 1000 nM of a test compound was incubated with 1 μg of human CRF receptor expressing CHO cellular membrane fraction and 50 pM of ^125I-CRF in a binding assay buffer (50 mM Tris-HCl, 5 mM EDTA, 10 mM MgCl2, 0.05% CHAPS, 0.1% BSA, 0.5 mM PMSF, 0.1 μg/mL pepstatin, 20 μg/mL leupeptin, pH 7.5). In addition, for measuring nonspecific binding (NSB), 0.1 μM unlabelled human Urocortin was incubated with 5 μg of human CRF receptor expressing CHO cellular membrane fraction and 50 pM of ^125I-CRF in a binding assay buffer. After a binding reaction was carried out at room temperature for 1.5 hr, the membrane was entrapped on a glass filter (UniFilter plate GF-C/Perkin Elmer) by suction filtration using a cell harvester (Perkin Elmer), and washed with ice-cooled 50 mM Tris-HCl (pH 7.5). After drying the glass filter, a liquid scintillation cocktail (Microscinti 0, Perkin Elmer) was added, and the radioactivity of ^125I-CRF remaining on a glass filter was measured using Topcount (Perkin Elmer).
(TB-SB)/(TB-NSB)×100 (SB: radioactivity when a compound is added, TB: maximum binding radioactivity, NSB: nonspecific binding radioactivity) were calculated to obtain binding inhibitory rates under the range of the presence from 0.05 nM to 10 μM of each compounds. The IC50 values were calculated by using GraphPad Prism software.

Compound	IC50
CCC(CC)c1ccc(OC)c2nc(Oc3ccc(OC(F)(F)F)cc3Cl)n(C)c12 [Example 1, 2-[2-Chloro-4-(trifluoromethoxy)phenoxy]-7-(1-ethylpropyl)-4-methoxy-1-methyl-1H-benzimidazole]	< 1 µM
CCC(CC)c1ccc(OC)c2nc(Oc3ncc(Br)cc3C)n(C)c12 [Example 8, 2-[(5-Bromo-3-methylpyridin-2-yl)oxy]-7-(1-ethylpropyl)-4-methoxy-1-methyl-1H-benzimidazole]	< 1 µM
CCC(CC)c1ccc(OC)c2nc(Oc3nn(C)c(C)c3C)n(C)c12 [Example 14, 7-(1-Ethylpropyl)-4-methoxy-1-methyl-2-[(1,4,5-trimethyl-1H-pyrazol-3-yl)oxy]-1H-benzimidazole]	< 1 µM
CCC(CC)c1ccc(Cl)c2nc(Oc3c(Cl)cc(Cl)cc3[Si](C)(C)C)n(C)c12 [Example 60, 4-Chloro-2-[2,4-dichloro-6-(trimethylsilyl)phenoxy]-7-(1-ethylpropyl)-1-methyl-1H-benzimidazole]	< 1 µM
CCC(c1cccc2nc(Nc3c(C)cc(Cl)cc3OC)n(C)c12)N(C)C (stereo not drawn) [Example 62, N-(4-Chloro-2-methoxy-6-methylphenyl)-7-[1-(dimethylamino)propyl]-1-methyl-1H-benzimidazol-2-amine]	< 1 µM
CCC(CC)c1ccc(Cl)c2nc(Nc3c(C)cc(Cl)cc3OC)[nH]c12 [Example 67, 4-Chloro-N-(4-chloro-2-methoxy-6-methylphenyl)-7-(1-ethylpropyl)-1H-benzimidazol-2-amine]	< 1 µM

Tested on: not given
Assay: not given
Conditions: not given

Compound	melting point
CCC(CC)c1ccc(Cl)c2nc(Oc3c(C)cc([Si](C)(C)C)cc3Cl)n(C)c12	146 to 148 °C
CCC(CC)c1ccc(OC)c2nc(Oc3ccc(Cl)cc3CN(C)C)n(C)c12 [Example 9, 1-(5-Chloro-2-{[7-(1-ethylpropyl)-4-methoxy-1-methyl-1H-benzimidazol-2-yl]oxy}phenyl)-N,N-dimethylmethanamine]	121 to 123 °C
CCC(CC)c1ccc(OC)c2nc(Oc3ccc(C)nc3C(F)(F)F)n(C)c12 [Example 11, 7-(1-Ethylpropyl)-4-methoxy-1-methyl-2-{[6-methyl-2-(trifluoromethyl)pyridin-3-yl]oxy}-1H-benzimidazole]	135 to 137 °C
CCC(CC)c1ccc(OC)c2nc(Nc3ccc(C(F)(F)F)cc3Cl)n(C)c12 [Example 16, N-[2-Chloro-4-(trifluoromethyl)phenyl]-7-(1-ethylpropyl)-4-methoxy-1-methyl-1H-benzimidazol-2-amine]	170 to 171 °C
CCC(CC)c1ccc(OC)c2nc(Nc3ccc(Cl)cc3C(F)(F)F)n(C)c12 [Example 17, N-[4-Chloro-2-(trifluoromethyl)phenyl]-7-(1-ethylpropyl)-4-methoxy-1-methyl-1H-benzimidazol-2-amine]	122 to 123 °C
CCC(CC)c1ccc(OC)c2nc(Nc3ccc(OC(F)(F)F)cc3Cl)n(C)c12 [Example 18, N-[2-Chloro-4-(trifluoromethoxy)phenyl]-7-(1-ethylpropyl)-4-methoxy-1-methyl-1H-benzimidazol-2-amine]	175 to 177 °C
CCC(CC)c1ccc(OC)c2nc(Nc3ccc(Cl)cc3N(C)C)n(C)c12 [Example 21, 4-Chloro-N^1-[7-(1-ethylpropyl)-4-methoxy-1-methyl-1H-benzimidazol-2-yl]-N^2,N^2-dimethylbenzene-1,2-diamine]	47 to 49 °C
CCC(CC)c1ccc(Cl)c2nc(Oc3c(Cl)cc(Cl)cc3Br)n(C)c12 [Example 23, 2-(2-Bromo-4,6-dichlorophenoxy)-4-chloro-7-(1-ethylpropyl)-1-methyl-1H-benzimidazole]	165 to 167 °C
CCC(CC)c1ccc(Cl)c2nc(Oc3c(Cl)cc(Cl)cc3NC)n(C)c12 [Example 28, 3,5-Dichloro-2-{[4-chloro-7-(1-ethylpropyl)-1-methyl-1H-benzimidazol-2-yl]oxy}-N-methylaniline]	162 to 163 °C
CCC(CC)c1ccc(Cl)c2nc(Oc3c(C)cc(Br)cc3Cl)n(C)c12 [Example 33, 2-(4-Bromo-2-chloro-6-methylphenoxy)-4-chloro-7-(1-ethylpropyl)-1-methyl-1H-benzimidazole]	163 to 164 °C
CCC(CC)c1ccc(Cl)c2nc(Oc3c(Cl)cc(OC(F)(F)F)cc3Br)n(C)c12 [Example 41, 2-[2-Bromo-6-chloro-4-(trifluoromethoxy)phenoxy]-4-chloro-7-(1-ethylpropyl)-1-methyl-1H-benzimidazole]	149 to 151 °C
CCC(CC)c1ccc(Cl)c2nc(Nc3c(C)cc([S+](C)[O-])cc3OC)n(C)c12 (stereo not drawn) [Example 46, 4-Chloro-7-(1-ethylpropyl)-N-[2-methoxy-6-methyl-4-(methylsulfinyl)phenyl]-1-methyl-1H-benzimidazol-2-amine]	222 to 223 °C
CCC(CC)c1ccc(Cl)c2nc(Nc3c(C)cc(S(C)(=O)=O)cc3OC)n(C)c12 [Example 47, 4-Chloro-7-(1-ethylpropyl)-N-[2-methoxy-6-methyl-4-(methylsulfonyl)phenyl]-1-methyl-1H-benzimidazol-2-amine]	234 to 236 °C
CCC(CC)c1ccc(Cl)c2nc(Nc3c(C)cc(C(N)=O)cc3OC)n(C)c12 [Example 48, 4-{[4-Chloro-7-(1-ethylpropyl)-1-methyl-1H-benzimidazol-2-yl]amino}-3-methoxy-5-methylbenzamide]	298 to 299 °C
CCC(CC)c1ccc(Cl)c2nc(Nc3c(C)cc(Cl)cc3Br)n(C)c12 [Example 49, N-(2-Bromo-4-chloro-6-methylphenyl)-4-chloro-7-(1-ethylpropyl)-1-methyl-1H-benzimidazol-2-amine]	232 to 233 °C
CCC(CC)c1ccc(Cl)c2nc(Oc3cccc4c3CN(C)C4)n(C)c12 [Example 54, 4-Chloro-7-(1-ethylpropyl)-1-methyl-2-[(2-methyl-2,3-dihydro-1H-isoindol-4-yl)oxy]-1H-benzimidazole]	99 to 100 °C
CCC(CC)c1ccc(Cl)c2nc(Nc3c(C)cc(-n4cccn4)cc3OC)n(C)c12 [Example 57, 4-Chloro-7-(1-ethylpropyl)-N-[2-methoxy-6-methyl-4-(1H-pyrazol-1-yl)phenyl]-1-methyl-1H-benzimidazol-2-amine]	237 to 239 °C
CCC(CC)c1ccc(Cl)c2nc(Nc3c(C)cc(-n4ccc(C(F)(F)F)n4)cc3OC)n(C)c12 [Example 58, 4-Chloro-7-(1-ethylpropyl)-N-{2-methoxy-6-methyl-4-[3-(trifluoromethyl)-1H-pyrazol-1-yl]phenyl}-1-methyl-1H-benzimidazol-2-amine]	249 to 251 °C
CCc1ccc(C(CC)CC)c2c1nc(Oc1c(C)cc(Cl)cc1Cl)n2C [Example 71, 2-(2,4-Dichloro-6-methylphenoxy)-4-ethyl-7-(1-ethylpropyl)-1-methyl-1H-benzimidazole]	96 to 97 °C
CCOc1ccc(C(CC)CC)c2c1nc(Oc1ccc(Cl)cc1Br)n2C [Example 72, 2-(2-Bromo-4-chlorophenoxy)-4-ethoxy-7-(1-ethylpropyl)-1-methyl-1H-benzimidazole]	93 to 94 °C
CCOc1ccc(C(CC)CC)c2c1nc(Oc1c(C)cc(Cl)cc1Cl)n2C [Example 73, 2-(2,4-Dichloro-6-methylphenoxy)-4-ethoxy-7-(1-ethylpropyl)-1-methyl-1H-benzimidazole]	116 to 117 °C
CCC(CC)c1ccc(OC)c2nc(Oc3ccc(OC(F)(F)F)cc3-n3ccnc3)n(C)c12 [Example 82, 7-(1-Ethylpropyl)-2-[2-(1H-imidazol-1-yl)-4-(trifluoromethoxy)phenoxy]-4-methoxy-1-methyl-1H-benzimidazole]	168 to 169 °C
CCC(CC(=O)O)c1ccc(Cl)c2nc(Oc3c(C)cc(Cl)cc3Cl)n(C)c12 (stereo not drawn) [Example 99, 3-[4-Chloro-2-(2,4-dichloro-6-methylphenoxy)-1-methyl-1H-benzimidazol-7-yl]pentanoic acid]	201 to 202 °C
CCC(CC)c1ccc(Cl)c2nc(Nc3ccc(Cl)cc3Cl)n(CCO)c12 [Example 100, 2-[4-Chloro-2-[(2,4-dichlorophenyl)amino]-7-(1-ethylpropyl)-1H-benzimidazol-1-yl]ethanol]	192 to 193 °C
